Test results taken from EP4792813A1, “USE OF […] PREPARATION OF DRUG FOR PREVENTING AND TREATING SEPSIS AND SEPSIS-INDUCED ORGAN DAMAGE” (Lunan Pharmaceutical Group Corporation, priority 2023, dated 2025).

How the values were obtained:
Format in all cases: in vivo, C57BL/6J mice
[1] = tested on: mice with LPS-induced sepsis; assay: Serum inflammatory factors (ELISA) in mice with LPS-induced sepsis; conditions: for IL-6 / TNF-α: serum, 24 h after LPS, x±s, n = 6; for serum inflammatory factor indices: result in words, compared with the model group
Description: (§1) After 1 week of acclimatization, mice were randomly divided into 8 groups: normal group, model group, positive control group, control group 1, control group 2, and compound I low-, medium- and high-dose groups, with 20 mice in each group. […] After the experiment was started, the normal group and model group were intraperitoneally injected with normal saline according to the body weight. The positive control group was intraperitoneally injected with 1 mg/kg dexamethasone. The Compound I low-, medium- and high-dose groups were intraperitoneally injected with 1 mg/kg, 2.5 mg/kg and 5 mg/kg compound I according to the body weight, respectively. The control group 1 was intraperitoneally injected with 5 mg/kg control compound 1 according to the body weight, and the control group 2 was intraperitoneally injected with 5 mg/kg control compound 2 according to the body weight. After 1 h, the normal group was intraperitoneally injected with normal saline according to the body weight, and the model group and each administration group were injected with 20 mg/kg LPS and then dissected 24 h later.
The blood samples were allowed to stand at room temperature for 1 h, followed by centrifugation at 3000 r/min to obtain serum. The serum was divided into two aliquots. One aliquot was processed in accordance with the instructions of TNF-α and IL-1β ELISA kits. Each well was measured at 450 nm using a microplate reader. The OD value of each sample was determined by subtracting the absorbance of the blank control well from the measured value. A standard curve was plotted based on the concentrations and OD values of standard samples to calculate the concentrations of the samples.

[2] = tested on: mice with LPS-induced sepsis; assay: Serum biochemical parameters (ALT, AST, UREA, CREA-S) in mice with LPS-induced sepsis; set-up: CREA-S: unit not given here; conditions: for ALT / AST / CREA-S / UREA: serum, 24 h after LPS, x±s, n = 7; for serum ALT, AST, UREA and CREA-S levels: result in words, compared with the model group
Description: as §1
A series of operations were performed on the serum in accordance with the instructions of the kits to detect ALT, AST, UREA and CREA-S concentrations.

[3] = tested on: mice with LPS-induced sepsis; assay: HE staining of kidney tissue sections in mice with LPS-induced sepsis; conditions: 24 h after intraperitoneal injection of 20 mg/kg LPS, compared with the model group, FIG. 1
Description: as §1
Mouse kidney tissue sections were stained using a hematoxylin-eosin (HE) staining method. First, the baked sections were dewaxed using xylene until the sections became transparent. The dewaxed sections were rinsed with ethanol to remove xylene and then rinsed with distilled water. […]

[4] = tested on: mice with LPS-induced sepsis; assay: 48 h survival rate of mice with LPS-induced sepsis; conditions: within 48 h after 20 mg/kg LPS; result in words; FIG. 2
Description: as §1
4.4 After 48 h, the survival rate of the remaining 10 mice in each group was observed.

[5] = tested on: mice with LPS-induced sepsis-associated encephalopathy; assay: Nissl staining of hippocampus in mice with LPS-induced sepsis-associated encephalopathy; conditions: 1, 2.5 and 5 mg/kg i.p. 1 h before 25 mg/kg LPS; 24 h; compared with the model group
Description: (§2) After 1 week of acclimatization, 60 male C57BL/6J mice were randomly divided into five groups: normal group, model group, Compound I low-dose group, Compound I medium-dose group and Compound I high-dose group, with 12 mice per group.
(§3) After the experiment was started, the normal group and model group were intraperitoneally injected with normal saline according to the body weight. The Compound I low-, medium- and high-dose groups were intraperitoneally injected with 1 mg/kg, 2.5 mg/kg and 5 mg/kg Compound I according to the body weight, respectively. After 1 h, the normal group was intraperitoneally injected with a corresponding volume of normal saline according to the body weight of the mice, while the model group and each administration group were injected with 25 mg/kg LPS. The administration volume was 10 mL/kg. After 24 h, the mice were anesthetized with pentobarbital sodium. The skull was opened and the brain was harvested, rinsed with normal saline, blotted dry with filter paper, and weighed. The brain index was calculated based on the following formula: Brain index = brain weight/body weight × 100% [formula]
The prepared sections were dried and dewaxed, and then stained with a Nissl staining solution for 90 min. […]

[6] = tested on: mice with LPS-induced sepsis-associated encephalopathy; assay: Brain index in mice with LPS-induced sepsis-associated encephalopathy; conditions: 1, 2.5 and 5 mg/kg i.p. 1 h before 25 mg/kg LPS; 24 h; compared with the model group (p<0.01)
Description: as §2, §3

[7] = tested on: mice with LPS-induced sepsis-associated encephalopathy; assay: Eight-arm maze test in mice with LPS-induced sepsis-associated encephalopathy; conditions: compared with the model group
Description: After 1 week of acclimatization, 60 male C57BL/6J mice were randomly divided into five groups: normal group, model group, compound I low-dose group, Compound I medium-dose group and Compound I high-dose group, with 12 mice in each group.
After the experiment was started, the normal group and model group were intraperitoneally injected with normal saline according to the body weight. The Compound I low-, medium- and high-dose groups were intraperitoneally injected with 1 mg/kg, 2.5 mg/kg and 5 mg/kg compound I, respectively. After 1 h, the normal group was intraperitoneally injected with a corresponding volume of normal saline according to the body weight of the mice, while the model group and each administration group were injected with 10 mg/kg LPS, with an administration volume of 10 mL/kg.
Behavioral tests were performed in an automated eight-arm maze. Before the experiment was started, all the mice were required to undergo acclimatization training. The food intake of the mice was restricted daily to facilitate the rapid finding and memorization of food pellets placed in the 1st, 2nd, 4th and 7th arms during the test. On day 1, an equal amount of food pellets was placed in each arm. The mice were placed in the maze and then allowed to explore freely for 300 s before acclimatization was terminated. Starting from day 2, the automatic doors were first closed, and the mice were placed in the center of the maze for 15 s. The automatic doors were then opened to release the mice for testing. The training was terminated when the time reached 300 s or the mice found the food pellets. The training was conducted for a total of five days. Working memory errors were defined as repeated entries by the mice into arms where food pellets had already been found and consumed. Reference memory errors were defined as entries into arms without food pellets. The total number of arm entries was recorded as the total arm entries. The time required for the mice to find all food pellets was defined as the test duration. On the day 7 of the experiment, a formal trial was initiated, and this step unchanged. The frequencies of working memory errors and reference memory errors were calculated based on the recorded working memory errors, reference memory errors and total arm entries.

[8] = tested on: mice with LPS-induced sepsis-associated encephalopathy; assay: Novel object recognition test in mice with LPS-induced sepsis-associated encephalopathy; conditions: 1, 2.5 and 5 mg/kg i.p. on days 1-3, 7.5 mg/kg LPS on days 1 and 2; compared with the model group; FIG. 6
Description: as §2
On day 1 of the experiment, the normal group and model group were intraperitoneally injected with normal saline according to the body weight. The Compound I low-, medium- and high-dose groups were intraperitoneally injected with 1 mg/kg, 2.5 mg/kg and 5 mg/kg Compound I according to the body weight, respectively. After 1 h, the normal group was intraperitoneally injected with a corresponding volume of normal saline according to the body weight of the mice, while the model group and each administration group were injected with 7.5 mg/kg LPS. The administration volume was 10 mL/kg.
On day 2 of the experiment, the operations on day 1 were repeated. […]
The mice were individually placed in a square arena (40 × 40 × 40 cm) and allowed to move freely for 10 min. […] The time and frequency of mice contacting the objects or exploring within 2 cm of the objects (forepaws on the object, nose sniffing, or licking the object) were recorded. The preference index (PI) and discrimination index were calculated. […]

[9] = 1 mg/kg i.p. 1 h before 20 mg/kg LPS
[10] = 2.5 mg/kg i.p. 1 h before 20 mg/kg LPS
[11] = 5 mg/kg i.p. 1 h before 20 mg/kg LPS
[12] = 1, 2.5 and 5 mg/kg i.p. 1 h before 10 mg/kg LPS, best effect in medium-dose group, FIG. 5

Structure (SMILES) | IL-6 [1, 9] [pg] | TNF-α [1, 9] [pg] | IL-6 [1, 11] [pg] | TNF-α [1, 11] [pg] | ALT [2, 9] [U/L] | AST [2, 9] [U/L] | UREA [2, 9] [mmol/L] | ALT [2, 11] [U/L] | AST [2, 11] [U/L] | CREA-S [2, 11] | UREA [2, 11] [mmol/L] | serum inflammatory factor indices [1, 11] | serum ALT, AST, UREA and CREA-S levels [2, 11] | further results
Cn1c(C(=O)N2CCC(C(=O)Nc3cccc(Cl)c3)CC2)cc2ccccc21 [Compound I, N-(3-chlorophenyl)-1-(1-methyl-1H-indole-2-carbonyl)piperidine-4-carboxamide] | 20.10 ± 3.28 | 127.00 ± 16.42 | 17.04 ± 2.94 | 14.00 ± 2.29 | 69.44 ± 16.93 | 183.40 ± 37.18 | 35.56 ± 8.88 | 59.61 ± 6.89 | 137.50 ± 26.26 | 20.80 ± 7.59 | 22.69 ± 10.33 | – | – | IL-6 [1, 10]: 17.60 ± 3.20 pg; TNF-α [1, 10]: 76.30 ± 6.77 pg; CREA-S [2, 9]: 21.07 ± 5.89; ALT [2, 10]: 67.83 ± 19.01 U/L; AST [2, 10]: 180.20 ± 54.87 U/L; CREA-S [2, 10]: 18.64 ± 6.72; UREA [2, 10]: 26.02 ± 9.03 mmol/L; changes of renal tubules (abnormal dilation of renal tubules, atrophy of epithelial cells and lightening of cytoplasm), HE staining [3]: significantly ameliorated; survival rate [4]: significantly improve the survival rate; Nissl staining of the hippocampus region of the mouse brain tissue [5]: reduced neuronal pyknosis, recovered cell morphology and normal Nissl bodies; brain index [6]: significantly reduced; frequency of reference memory errors [7, 12]: decreased; frequency of working memory errors [7, 12]: decreased; test duration ([7]; medium- and high-dose groups (2.5 and 5 mg/kg i.p.), 10 mg/kg LPS): decreased; total numbers of arm entries ([7]; medium- and high-dose groups (2.5 and 5 mg/kg i.p.), 10 mg/kg LPS, most significant reduction in medium-dose group): decreased; discrimination index [8]: increased; preference index [8]: increased
O=C(Nc1cccc(Cl)c1)C1CCN(C(=O)c2ccc3ccccc3c2)CC1 [Control group 1] | – | – | 24.72 ± 4.03 | 244.20 ± 10.95 | – | – | – | 78.19 ± 10.95 | 271.1 ± 25.31 | – | 46.47 ± 4.58 | no significant improvements | no significant improvements | –
O=C(c1cccc(O)c1)N1CCC(c2nc3cc(Cl)ccc3o2)CC1 [Control group 2] | – | – | 24.56 ± 3.56 | 238.20 ± 9.79 | – | – | – | 77.76 ± 12.51 | 265.20±31.82 | 43.99 ± 5.81 | 47.22 ± 3.39 | no significant improvements | no significant improvements | –
C[C@@H]1C[C@H]2[C@@H]3CCC4=CC(=O)C=C[C@]4(C)[C@@]3(F)[C@@H](O)C[C@]2(C)[C@@]1(O)C(=O)CO [Positive control group, dexamethasone] | 16.49 ± 1.38 | 79.27 ± 4.86 | – | – | 58.94 ± 7.12 | 142.8 ± 21.78 | 20.69 ± 5.68 | – | – | – | – | – | – | –
